Source: patent publication US20130023051A1, “TECHNIQUES FOR TRANSFECTING PROTOPLASTS” (Keygene N.V., priority 2009, published 2013)

Test system: mutated EGFP (mEGFP) in BY-2 protoplasts
Test: meGFP restoration in BY-2 protoplasts by oligonucleotide-mediated targeted gene repair (Example 3)
Assay type: cell-based, tobacco
Text: A tobacco Bright Yellow 2 cell suspension containing a non-functional EGFP gene was produced by introducing a point mutation in the chromophore region of the protein resulting in the formation of a premature stop codon. This line is used as reporter system to test the influence of various parameters on the repair of the EGFP gene by oligonucleotide-mediated targeted gene repair.
Five mL of a 7 d-old tobacco Bright Yellow 2 (BY-2) cell suspension culture weekly maintained in BY-2 culture medium (Nagata et al. 1999 Method Cell Sci) are transferred to a 50 mL Erlenmeyer flask containing 45 mL of BY-2 culture medium supplemented with 2 mM hydroxyurea. […] Live protoplasts are harvested and their density evaluated using a haemocytometer. […]
Tobacco protoplasts transfection is performed as for tomato protoplasts. […] To culture medium contained (per liter, pH 5.7) 950 mg KNO3, 825 mg NH4NO3, 220 mg CaCl2.2H2O, 185 mg MgSO4.7H2O, 85 mg KH2PO4, 27.85 mg FeSO4.7H2O, 37.25 mg Na2EDTA.2H2O, the micro-nutrients according to Heller's medium (Heller, R. 1953 Ann Sci Nat Bot Biol Veg), vitamins according to Morel and Wetmore's medium (Morel, G. and R. H. Wetmore 1951 Amer. J. Bot.), 2% (w/v) sucrose, 3 mg naphthalene acetic acid, 1 mg 6-benzylaminopurine and a quantity of mannitol to bring the osmolality to 540 mOsm·kg^−1 and transferred to a 35 mm Petri dish. […]

“repairing oligonucleotide: SEQ ID NO 8, T*G*A*A*CAGCTCCTCGCCCTTGC*T*C*A*C, phosphorothioate ends, one mismatch with the targeted sequence (DNA TGAACAGCTCCTCGCCCTTGCTCAC; DNA, linkages s4 o16 s4 (s phosphorothioate, o phosphodiester), methylation of C not given here)” was tested, and the “GFP positive protoplasts after 24 hours (/10^6)” value (label = Day 1 / Day 2 treatment, oligonucleotide transfected at Day 2, dichlobenil 2 mg·L^−1 overnight, 2 mM hydroxyurea) was 0 /10^6 and the “GFP positive protoplasts after 24 hours (/10^6)” value (oligonucleotide transfected at Day 1, nothing at Day 2, 2 mM hydroxyurea) was 0 /10^6.
